# Measurements reported in the supplement of paper PMC11061612.
# How the values were obtained:
# [1] = compound: COc1cc([C@@H]2c3cc4c(cc3[C@@H](O[C@@H]3O[C@@H]5CO[C@@H](C)O[C@H]5[C@H](O)[C@H]3O)[C@H]3COC(=O)[C@H]23)OCO4)cc(OC)c1O [Etoposide]; settings: max 10 µM
# In short: (§1)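 Cancer cell lines were seeded in 1536-well plates in 7.5 μl DMEM/F12 or RPMI with 10% FBS, held 24 hours at 37°C and 5% CO2, then dosed for 72 hours (final DMSO typically 0.2%). Viability was read by CellTiter-Glo 2.0 luminescence and scaled between blank-well and DMSO-well means. The single-agent IC50 comes from dose responses fitted to a two-parameter logistic curve with a non-linear mixed effects model.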
# [2] = compound: C1CC(C1)(C(=O)[O-])C(=O)[O-].N.N.[Pt+2] [Carboplatin]; settings: max 10 µM
# In short: as §1
# [3] = compound: NC1(c2ccc(-c3nc4ccn5c(=O)[nH]nc5c4cc3-c3ccccc3)cc2)CCC1 [MK-2206]; settings: max 10 µM
# In short: as §1
# [4] = compound: Cn1cnc2c(F)c(Nc3ccc(Br)cc3Cl)c(C(=O)NOCCO)cc21 [Selumetinib]; settings: max 10 µM
# In short: as §1
# [5] = compound: CCN(CCO)CCCOc1ccc2c(Nc3cc(CC(=O)Nc4cccc(F)c4)[nH]n3)ncnc2c1 [AZD2811]; settings: max 1 µM
# In short: as §1
# [6] = compound: CC1(C)CCC(CN2CCN(c3ccc(C(=O)NS(=O)(=O)c4ccc(NCC5CCOCC5)c([N+](=O)[O-])c4)c(Oc4cnc5[nH]ccc5c4)c3)CC2)=C(c2ccc(Cl)cc2)C1 [Venetoclax]; settings: max 1 µM
# In short: as §1
# [7] = compound: COc1cccc(OCCCN)c1-c1cc(Nc2cnc(C#N)cn2)n[nH]1 [Prexasertib]; settings: max 1 µM
# In short: as §1
# [8] = compound: CN(CC[C@H](CSC1=CC=CC=C1)NC2=C(C=C(C=C2)S(=O)(=O)NC(=O)C3=CC=C(C=C3)N4CCC(CC4)[C@H](C5=CC=CC=C5C6=CC=C(C=C6)Cl)O)S(=O)(=O)C(F)(F)F)CCO [AZD4320]; settings: max 1 µM
# In short: as §1
# [9] = compound: Cc1c2c(nn1C)CSCc1cc(n(C)n1)CSc1cc(c3ccccc3c1)OCCCc1c(C(=O)O)n(C)c3c-2c(Cl)ccc13 [AZD5991]; settings: max 1 µM
# In short: as §1
# [10] = compound: C[C@@H](Nc1cc(F)cc(F)c1)c1cc(C(=O)N(C)C)cc2c(=O)cc(N3CCOCC3)oc12 [AZD8186]; settings: max 10 µM
# In short: as §1
# [11] = compound: CC1=C(C(=CC=C1)Cl)NC(=O)C2=CN=C(S2)NC3=CC(=NC(=N3)C)N4CCN(CC4)CCO [Dasatinib]; settings: max 2 µM
# In short: as §1
# [12] = compound: Cc1nc(-c2cn3c(n2)-c2ccc(-c4cnn(C(C)(C)C(N)=O)c4)cc2OCC3)n(C(C)C)n1 [Taselisib]; settings: max 10 µM
# In short: as §1
# [13] = compound: C=CCn1c(=O)c2cnc(Nc3ccc(N4CCN(C)CC4)cc3)nc2n1-c1cccc(C(C)(C)O)n1 [AZD1775]; settings: max 3 µM
# In short: as §1
# [14] = compound: CC(C)n1c(=O)n(C)c2cnc3cc(F)c(-c4ccc(OCCCN5CCCCC5)nc4)cc3c21 [AZD1390]; settings: max 0.3 µM
# In short: as §1
# [15] = compound: N#Cc1cnc(Nc2cc(NC[C@H]3CNCCO3)c(C(F)(F)F)cn2)cn1 [SRA737]; settings: max 10 µM
# In short: as §1
# [16] = compound: C1CN(CCC1(C(=O)N[C@@H](CCO)C2=CC=C(C=C2)Cl)N)C3=NC=NC4=C3C=CN4 [AZD5363]; settings: max 10 µM
# In short: as §1
# [17] = compound: COc1cccc2c1C(=O)c1c(O)c3c(c(O)c1C2=O)C[C@@](O)(C(=O)CO)C[C@@H]3O[C@H]1C[C@H](N)[C@H](O)[C@H](C)O1 [Doxorubicin]; settings: max 1 µM
# In short: as §1
# [18] = compound: COc1cc2ncnc(Nc3ccc(F)c(Cl)c3)c2cc1OCCCN1CCOCC1 [Gefitinib]; settings: max 10 µM
# In short: as §1
# [19] = compound: COc1cc(Nc2ncc3c(n2)-c2ccc(Cl)cc2C(c2c(F)cccc2OC)=NC3)ccc1C(=O)O [Alisertib]; settings: max 10 µM
# In short: as §1
# [20] = compound: CC1=CN2[C@@H](C1)C=NC3=CC(=C(C=C3C2=O)OC)OCCCCCOC4=C(C=C5C(=C4)N=C[C@@H]6CC(=CN6C5=O)C)OC [SG3199]; settings: max 0.001 µM
# In short: as §1
# [21] = compound: C[C@@H](c1ccc2nccn2c1)n1nnc2ncc(-c3cnn(C)c3)nc21 [Savolitinib]; settings: max 1 µM
# In short: as §1
# [22] = compound: Nc1ccn([C@@H]2O[C@H](CO)[C@@H](O)C2(F)F)c(=O)n1 [Gemcitabine]; settings: max 0.3 µM
# In short: as §1
# [23] = compound: CS(=O)(=O)CCNCc1ccc(-c2ccc3ncnc(Nc4ccc(OCc5cccc(F)c5)c(Cl)c4)c3c2)o1 [Lapatinib]; settings: max 10 µM
# In short: as §1
# [24] = compound: O=c1[nH]cc(F)c(=O)[nH]1 [5-Fluorouracil]; settings: max 20 µM
# In short: as §1
# [25] = compound: CCc1c2c(nc3ccc(O)cc13)-c1cc3c(c(=O)n1C2)COC(=O)[C@]3(O)CC [SN-38]; settings: max 0.3 µM
# In short: as §1
# [26] = compound: CN(C)CCCOc1ccc(-c2ccc3ncc4c(c3c2)n(C2CCOCC2)c(=O)n4C)cn1 [AZD0156]; settings: max 3 µM
# In short: as §1
# [27] = compound: C[C@@H]1COCCN1C2=NC(=NC(=C2)C3(CC3)[S@](=N)(=O)C)C4=C5C=CNC5=NC=C4 [AZD6738]; settings: max 10 µM
# In short: as §1
# [28] = compound: CC(=O)c1c(C)c2cnc(Nc3ccc(N4CCNCC4)cn3)nc2n(C2CCCC2)c1=O [Palbociclib]; settings: max 10 µM
# In short: as §1
# [29] = compound: C[C@@H](Oc1cc(-c2cnn(C3CCNCC3)c2)cnc1N)c1c(Cl)ccc(F)c1Cl [Crizotinib]; settings: max 10 µM
# In short: as §1
# [30] = compound: CC(=O)O[C@H]1C(=O)[C@@]2(C)[C@H]([C@H](OC(=O)c3ccccc3)[C@]3(O)C[C@H](OC(=O)[C@H](O)[C@@H](NC(=O)c4ccccc4)c4ccccc4)C(C)=C1C3(C)C)[C@]1(OC(C)=O)CO[C@@H]1C[C@@H]2O [Paclitaxel]; settings: max 3 µM
# In short: as §1
# [31] = compound: COc1nnc2ccc(N3CCC(c4ccc(OCCN5CCN(C)C(=O)[C@H]5C)cc4)CC3)nn12 [AZD5153]; settings: max 1 µM
# In short: as §1
# [32] = compound: O=C(c1cc(Cc2n[nH]c(=O)c3ccccc23)ccc1F)N1CCN(C(=O)C2CC2)CC1 [Olaparib]; settings: max 10 µM
# In short: as §1
# [33] = compound: Cc1cc2ncnn2cc1Nc1ncc2c(n1)n(C1CCOCC1)c(=O)n2C [AZD7648]; settings: max 10 µM
# In short: as §1
# [34] = compound: O=C(Nc1ccc2[nH]nc(-c3ccncc3)c2c1)[C@@H]1CCN(CC(=O)N2CCN(c3ccc(-c4ncccn4)cc3)CC2)C1; settings: max 5 µM
# In short: as §1
# [35] = compound: CC(=O)Nc1cccc(-n2c(=O)n(C3CC3)c(=O)c3c(Nc4ccc(I)cc4F)n(C)c(=O)c(C)c32)c1 [Trametinib]; settings: max 1 µM
# In short: as §1
Cell Line,"IC50, cell viability 72 h [1] [nM]","IC50, cell viability 72 h [2] [nM]","IC50, cell viability 72 h [3] [nM]","IC50, cell viability 72 h [4] [nM]","IC50, cell viability 72 h [5] [nM]","IC50, cell viability 72 h [6] [nM]","IC50, cell viability 72 h [7] [nM]","IC50, cell viability 72 h [8] [nM]","IC50, cell viability 72 h [9] [nM]","IC50, cell viability 72 h [10] [nM]","IC50, cell viability 72 h [11] [nM]","IC50, cell viability 72 h [12] [nM]","IC50, cell viability 72 h [13] [nM]","IC50, cell viability 72 h [14] [nM]","IC50, cell viability 72 h [15] [nM]","IC50, cell viability 72 h [16] [nM]","IC50, cell viability 72 h [17] [nM]","IC50, cell viability 72 h [18] [nM]","IC50, cell viability 72 h [19] [nM]","IC50, cell viability 72 h [20] [nM]","IC50, cell viability 72 h [21] [nM]","IC50, cell viability 72 h [22] [nM]","IC50, cell viability 72 h [23] [nM]","IC50, cell viability 72 h [24] [nM]","IC50, cell viability 72 h [25] [nM]","IC50, cell viability 72 h [26] [nM]","IC50, cell viability 72 h [27] [nM]","IC50, cell viability 72 h [28] [nM]","IC50, cell viability 72 h [29] [nM]","IC50, cell viability 72 h [30] [nM]","IC50, cell viability 72 h [31] [nM]","IC50, cell viability 72 h [32] [nM]","IC50, cell viability 72 h [33] [nM]","IC50, cell viability 72 h [34] [nM]","IC50, cell viability 72 h [35] [nM]"
TE-9 (Esophageal Squamous Cell Carcinoma),> 10000,> 10000,> 10000,> 10000,> 1000,> 1000,548,> 1000,> 1000,> 10000,> 2000,> 10000,1150,> 300,> 10000,> 10000,> 1000,> 10000,> 10000,> 1,> 1000,> 300,> 10000,> 20000,> 300,> 3000,> 10000,> 10000,> 10000,68,> 1000,> 10000,> 10000,> 5000,> 1000
UM-UC-3 (Bladder Carcinoma),3450,> 10000,> 10000,> 10000,> 1000,> 1000,799,> 1000,> 1000,> 10000,> 2000,8320,> 3000,> 300,> 10000,> 10000,> 1000,> 10000,> 10000,> 1,> 1000,58.2,> 10000,> 20000,15.3,> 3000,> 10000,> 10000,> 10000,66,> 1000,> 10000,> 10000,> 5000,> 1000
